Data taken from publication PMC13478508 (Research, 2026).
No end group written: not given here.

B1: human Kir6.2 (Q52E) subunit of the cleaved KATP fusion protein (natural protein)
chain: GPLSRKGIIPEEYVLTRLAEDPAKPRYRARQRRARFVSKKGNCNVAHKNIREEGRFLQDVFTTLVDLKWPHTLLIFTMSFLCSWLLFAMAWWLIAFAHGDLAPSEGTAEPCVTSIHSFSSAFLFSIEVQVTIGFGGRMVTEECPLAILILIVQNIVGLMINAIMLGCIFMKTAQAHRRAETLIFSKHAVIALRHGRLCFMLRVGDLRKSMIISATIHMQVVRKTTSPEGEVVPLHQVDIPMENGVGGNSIFLVAPLIIYHVIDANSPLYDLAPSDLHHHQDLEIIVILEGVVETTGITTQARTSYLADEILWGQRFVPIVAEEDGRYSVDYSKFGNTVKVPTPLCTARQLDEDHSLLEALTLASARGPLRKRSVPMAKAKPKFSISPDSLS
notes: also called hsKir6.2; hsKir6.2 (Q52E)

Experiments:
[1] = test system: hsKir6.2+maSUR1 KATP channel; assay: Whole-cell patch clamp of KATP channel currents in transfected FreeStyle 293-F cells; assay type: cell-based, Homo sapiens (Kir6.2) / Mesocricetus auratus (SUR1); conditions: 1 μM toxin; whole-cell patch clamp at −40 mV; 5 mM BaCl2 baseline; result in words (Fig. 1A, 3H, 5B)
Experimental: KATP constructs were transfected into FreeStyle 293-F cells using polyethylenimine at a cell density of 1 × 10^6 cells/ml. Cells were cultured in FreeStyle 293 Expression Medium with 1% fetal bovine serum for 24 h before recording. Currents were recorded using whole-cell mode at −40 mV in the pipette and an Axon-patch 200B amplifier (Axon Instruments, USA). Patch electrodes were pulled by a horizontal microelectrode puller (P-1000, Sutter Instrument Co, USA) to tip resistance of 2.0 to 3.0 MΩ. Pipette solution containing 107 mM KCl, 1.2 mM MgCl2, 1 mM CaCl2, 10 mM EGTA, 5 mM Hepes (pH 7.2, KOH), and bath solution containing 40 mM KCl, 100 mM NaCl, 2.6 mM CaCl2, 1.2 mM MgCl2, and 5 mM Hepes (pH 7.4, NaOH) were used for measuring inhibitory effect of wild-type and mutant toxins. Application of 5 mM BaCl2 in bath solution was used to block the KATP currents to determine the baseline. Data analysis was carried out using GraphPad Prism 8.0 or 10.4.0.

[2] = biological target: the molecule itself; assay: cryo-EM structure

Molecule | Inhibition of whole-cell KATP current [1] | stoichiometry N [2]
Sm3a: toxin from the centipede Scolopendra morsitans (P0DQC2.1), recombinantly expressed; novel KATP channel blocker (AKKEIPYKRQKFPKKSQCIEACANALTNGDKSKITDVKSRFYKCICYYNP; also: two disulfide bonds, pairing not given here for this toxin) | strongly blocks currents | –
B1 | – | 4
